One experiment concerns C. tropicalis. Put plainly: Antifungal susceptibility (MIC/MFC), CLSI criteria. It is filed as cell-based, Candida tropicalis. The following applies: C. tropicalis ATCC; 0.5 McFarland inoculum (10^6 cells/ml). The method, then:
Antifungal activity of the small molecules was evaluated using USA standards, Clinical and Laboratory Standards Institute (CLSI) criteria. In brief, inocula from 24 h Candida cultures on Sabourauds's dextore agar were standardized to a turbidity equivalent of 0.5 McFarland standards at 520 nm with a spectrophotometer. The suspensions were further diluted in Rosewell Park Memorial Institute (RPMI) 1640 medium (Life technologies, New York, USA) to yield an inoculum concentration of approximately 0.5 1×10^3 to 2.5 1×10^3 cells/ml. Minimum inhibitory concentration (MIC) and minimum fungicidal concentration (MFC) assay was performed in 96-well plates (Iwaki, Tokyo, Japan) and each of the Candida species was exposed to a double dilution of SM21. Amphotericin B was used as a positive control. All the experiments were preformed three occasions with duplicates for all isolates. The plates were incubated at 35° C. for 48 h to evaluate MIC. In the case of Cryotococcus neoformans, reading were taken after 72 h. Aforementioned assay was performed for C. albicans ATCC 90028, C. albicans SC5314 and 10 C. albicans clinical isolates. Moreover, MIC/MFC determination was carried out for other fungal species such as C. glabrata, C. krusei, C. tropicalis, C. parapsilosis, C. neoformans, Aspergillus fumigates and Penicillium marneffei. […]

Another experiment relates to Aspergillus fumigatus. Put plainly: Antifungal susceptibility (MIC/MFC), CLSI criteria. It is filed as cell-based. Conditions: 0.5 McFarland inoculum (10^6 cells/ml). The method, then:
(§1) Antifungal activity of the small molecules was evaluated using USA standards, Clinical and Laboratory Standards Institute (CLSI) criteria. In brief, inocula from 24 h Candida cultures on Sabourauds's dextore agar were standardized to a turbidity equivalent of 0.5 McFarland standards at 520 nm with a spectrophotometer. The suspensions were further diluted in Rosewell Park Memorial Institute (RPMI) 1640 medium (Life technologies, New York, USA) to yield an inoculum concentration of approximately 0.5 1×10^3 to 2.5 1×10^3 cells/ml. Minimum inhibitory concentration (MIC) and minimum fungicidal concentration (MFC) assay was performed in 96-well plates (Iwaki, Tokyo, Japan) and each of the Candida species was exposed to a double dilution of SM21. Amphotericin B was used as a positive control. All the experiments were preformed three occasions with duplicates for all isolates. The plates were incubated at 35° C. for 48 h to evaluate MIC. In the case of Cryotococcus neoformans, reading were taken after 72 h. Aforementioned assay was performed for C. albicans ATCC 90028, C. albicans SC5314 and 10 C. albicans clinical isolates. Moreover, MIC/MFC determination was carried out for other fungal species such as C. glabrata, C. krusei, C. tropicalis, C. parapsilosis, C. neoformans, Aspergillus fumigates and Penicillium marneffei. […] Next using dose-dependent assay we tested that MIC/MFC of SM21 from 10^3 cells/ml to 10^7 cells/ml of C. albicans (Table 2). Each of the foregoing experiment was repeated on three different occasions.

A further experiment has as its system Penicillium marneffei. Put plainly: Antifungal susceptibility (MIC/MFC), CLSI criteria. It is filed as cell-based. The following applies: 0.5 McFarland inoculum (10^6 cells/ml). As to the method: as §1
Another experiment deals with C. albicans. Put plainly: Dose-dependent assay of MIC/MFC at different cell densities. It is filed as cell-based, Candida albicans. The arrangement: unit not given here. As to the method: as §1
In a further experiment the test system is C. albicans biofilms. Put plainly: Mono species Candida biofilm MIC, XTT assay. It is filed as cell-based, Candida albicans. As to the method:
For instance, we have previously shown the resistance of Candida biofilms against amphotericin and caspofungin. Therefore, next using standard biofilm assays we have established in our laboratory, we examined the effect of SM21 against Candida biofilms. In brief, Candida cells were grown in SDA medium at 37° C. for 18 h. Then a loopful of the yeast was inoculated into the yeast nitrogen base (YNB; Difco) medium supplemented with 50 mM glucose in a rotary shaker at 75 rpm. After overnight broth culture, the yeasts were harvested in the late exponential growth phase and washed twice with 20 ml of phosphate buffer saline (PBS; pH 7.2. 0.1 M) prior to use in the biofilm studies. Candida biofilms were developed according to a previously published protocol. In brief, washed yeast cells were resuspended in YNB supplemented with 100 mM glucose and adjusted to an optical density of 0.38 at 520 nm (1×10^7 cells/ml). The standard cell suspension was used immediately to develop biofilms on commercially available presterilized, polystyrene, 96-well plate (IWAKI, Tokyo, Japan). At first, 100 μl of standardized cell suspension (1×10^7 cells/ml) was pipetted into each well of a microtiter plate and incubated for 1.5 h at 37° C. in a shaker at 75 rpm to permit yeast adherence to the well surface (adherence phase). For controls, a well of each microtiter plate was handled in an identical fashion except that no Candida suspension was added. Following the adhesion phase, the cell suspensions were aspirated, and each well washed with 100 μl of PBS to remove loosely adherent cells. 200 μl of YNB with 100 mM glucose were then pipetted into each of the washed wells and the plates incubated at 37° C. in a shaker at 75 rpm for 24 or 48 h. After biofilm growth phase microscopic examination of the cultures were performed to rule out contamination. Then, the suspending medium was aspirated and biofilms were washed with 100 μl PBS to remove the nonadherent cells. The stock solutions were diluted twofold with RPMI 1640 supplemented with 2% glucose to obtain SM21 concentration from 100 to 0.2 μg/ml drug concentrations. In parallel, other antifungal agents such as caspofungin (100 to 0.1 μg/ml) and amphotericin B (240 μg/ml to 0.225 μg/ml) was also prepared as describe above. A total of 100 μl of drug solution was added to the microtiter plate containing Candida biofilms. Biofilms were then incubated at 37° C. for 24 h with the antifungals and afterwards metabolic activity of fungal cells was determined by the XTT [2,3-bis(2-methoxy-4-nitro-5-sulfophenyl)-2H-tetrazolium-5-carboxanilide sodium salt] assay (17, 28). Candida biofilm MIC90 was defined as the lowest drug concentration with 90% reduction in opacity compared with the drug free control. Each experiment was repeated three times with four replicates.
A general note: Formazan colour is commonly taken as a measure of viable cells.

The subject of experiment [1] is Candida albicans invasion of human oral keratinocytes. Put plainly: Candida-human oral keratinocytes co-culture model. Conditions: 1×10^4 cells/ml C. albicans with human oral keratinocytes, 24-h incubation. It is filed as cell-based. The method, then: We also examined the ability of SM21 to inhibit invasion of Candida albicans in Candida-human oral keratinocytes co-culture model. Primary human oral keratinocytes (ScienCell Research Laboratories™, Carlsbad, Calif., USA) at passage two were cultured using Defined Keratinocyte-Serum Free Medium (Gibco, Grand Island, N.Y., USA) which contained 0.2% Defined Keratinocyte-SFM Growth Supplement (Gibco) and 1% penicillin/streptomycin solution. Cells were incubated at 37° C. in a humidified atmosphere with 5% CO2 and 95% air. Yeast cells for inoculation were cultured for 24 h at 37° C. on Sabouraud dextrose agar (Difco, Hampshire, England). A sample of the culture was washed thrice in PBS and an inoculum of approximately 2×10^5 cells was suspended in 10 ml of YPG medium (1% yeast extract, 2% peptone and 2% glucose; Difco, Detroit, Mich.). The suspension was cultured for 18 h at 37° C. with orbital shaking and the cells were harvested, washed in 0.9% NaCl and a sample of cells was resuspended in fresh medium in a shaker for 24 h at 37° C. Afterwards the cells were harvested by centrifuge and the inocula were prepared in phosphate buffered saline (PBS, pH 7.2). Human oral keratinocytes were grown to 80-90% confluence in u-Slide 8-well plates (ibidi GmbH Integrated BioDiagnostics, Martinsried, Germany). […]

With `CN(C)c1ccc(/C=C/c2cc(C(C)(C)C)[o+]c(C(C)(C)C)c2)cc1.[O-][Cl+3]([O-])([O-])[O-]` [SM21], the “Susceptibility (MIC90)” value in the experiment with C. tropicalis worked out at 0.8 µg/mL; in the experiment with Aspergillus fumigatus, 6.25 µg/mL; with Penicillium marneffei, 0.2 µg/mL. Further, the MIC/MFC was 0.1 in the experiment on C. albicans (C. albicans 10^4 cells/ml), 0.1 against C. albicans (C. albicans 10^5 cells/ml), 0.2 against C. albicans (C. albicans 10^6 cells/ml) and 0.6 against C. albicans (C. albicans 10^7 cells/ml). Besides, in the experiment on C. albicans biofilms (24 h C. albicans biofilms, 24 h drug exposure, XTT), the “Biofilm MIC90” value was 3.2 µg/mL. For the same compound, in the experiment on C. albicans biofilms (48 h C. albicans biofilms), the “Minimum inhibitory concentration of 48 h Candida biofilms” value was 25 µg/mL. In addition, the “Protection of keratinocytes from C. albicans invasion (LIVE/DEAD, confocal)” value in experiment [1] is on record as “able to prevent the epithelial cell damage”.

For the origin of these results see patent US9642829B2, “Antifungal compound and uses thereof” (The University of Hong Kong, priority 2012, dated 2017).
